The test system of series [1] is tumour infiltrating lymphocytes (TIL). Kind of series: IFNγ release by pre-treated TIL on autologous tumour cells after H2O2 treatment. In kind it is cell-based, human. The conditions noted are these: KADA and ANRU melanoma TIL, E:T 4:1, vs control group. The protocol: ., 2020). […] For Nrf2 inhibition, NK cells were treated with 50 μM ML-385 (Sigma-Aldrich) in parallel. […] Cells were washed with medium and then used for further experiments. For monocyte experiments, autologous NK cell-monocytes or TIL-monocytes were used. […] Stimulated monocytes were activated with 100 ng/ml PMA for 1 min, washed and added at indicated ratio, the number of NK cell/TIL was kept constant. […] For cytokine release assay, NK cells and TIL were cultured with indicated tumour cells at the effector target ratio 4:1 (E:T) for 24 h in U-bottom plates. IFNγ secretion was measured using human IFN-γ ELISA development kit (Mabtech) following the manufacturer's instructions.

The subject of series [2] is NK cells. Kind of series: NK cells co-cultured with PMA-activated autologous monocytes: intracellular ROS and K562 lysis. It is filed as cell-based, human. How it is done:
(§1) For Nrf2 inhibition, NK cells were treated with 50 μM ML-385 (Sigma-Aldrich) in parallel. For H2O2 treatment, lymphocyte cells were washed and resuspended to 1×10^6 cells/mL in medium and exposed to indicated H2O2 (Sigma-Aldrich) concentration for 1 h at 37° C. Cells were washed with medium and then used for further experiments. For monocyte experiments, autologous NK cell-monocytes or TIL-monocytes were used. NK cells/TIL were isolated and pre-treated with 0.5 μg/mL AUF, as described above, and co-cultured with unstimulated at the ratio, 1:2 M:NK, or stimulated monocytes at the ratio, 1:1 M:NK, if not indicated otherwise. Stimulated monocytes were activated with 100 ng/ml PMA for 1 min, washed and added at indicated ratio, the number of NK cell/TIL was kept constant. As control, H2O2 was used at indicated concentration. Cells were co-cultured for 2 h and then effector cells were stained for intracellular ROS (see flow cytometry) or used as effector cells in Cr^51 release assay (E:T ratio 10:1).
Monocytes were stimulated with 100 ng/ml PMA for 1 min and washed with HBSS (Gibco). Cells were resuspended in HBSS 5% FBS and added to a 96-well Optiplate (Perkin Elmer) containing HBSS 5% FBS and Luminol (56 μM; Sigma). Luminescence was measured immediately using a EnSpire plate reader (Perkin Elmer).
For detection of intracellular ROS levels, for NK cells CellROX™ Deep Red Reagent (Invitrogen) were used. Briefly, NK cells were stained with 2.5 μM CellROX solution in RPMI for 30 min at 37° C. and then stained for flow cytometry with anti-CD56 and anti-CD3 (both Biolegend).
For cytotoxic assay, a standard 4 h [Cr^51]-release assay was used. Briefly, tumour cells were harvested and labeled with 51Cr (PerkinElmer) and used as target cells. Effector cells, NK cells and T cells, were co-cultured in 96-well V-bottom plate with indicated tumour cells at the stated effector target ratio (E:T). The supernatant was collected onto LUMA plates (Perkin-Elmer) and radioactivity/tumour cell lysis was detected by MicroBeta2 (Perkin Elmer). Target cell killing measured by % specific lysis and calculated using the formula: ((experimental release-spontaneous release)/(maximum release-spontaneous release))*100.

In series [3] the test system is ANRU TIL. The series can be described thus: 3D killing assay: ANRU TIL on autologous tumour spheroids (Caspase 3/7, live cell imaging). It is filed as cell-based, human. To be noted: 48 h co-culture, vs controls. How it is done: 5000 ANRU tumour cells were seeded per well in Ultra-Low Attachment 96-well plates (Corning Costar) in culture medium containing 2% Matrigel (Corning) for 3 days. 1×10^4AUF pre-treated TIL (see above), and spheroids were co-cultured and monitored for 48 h with the IncuCyte live cell imaging system (Essen Bioscience) in the presence of CellEvent™ Caspase 3/7 Green detection agent (Invitrogen).

The test system of series [4] is NK cells. Kind of series: IFNγ release (ELISA) by pre-treated NK cells after H2O2 exposure. In kind it is cell-based, human. How it is done: Lymphocytes were pre-treated for 18 h with Auranofin (AUF, with the concentration 1 μg/mL for NK cells and 0.5 μg/mL for TIL, if not indicated differently), DL-Sulforaphane (SUL) or Dimethyl Fumarate (DMF) (all Sigma-Aldrich) at indicated concentrations.
as §1, with “Cells were co-cultured for 2 h and then effector cells were stained for intracellular ROS (see flow cytometry) or used as effector cells in Cr^51 release assay (E:T ratio 10:1).” left out
For cytokine release assay, NK cells and TIL were cultured with indicated tumour cells at the effector target ratio 4:1 (E:T) for 24 h in U-bottom plates. IFNγ secretion was measured using human IFN-γ ELISA development kit (Mabtech) following the manufacturer's instructions.

The subject of series [5] is cancer cells. The conditions noted are these: high doses (Stafford et al., 2018; Rigobello et al., 2008); cited from earlier work.

With `CC(=O)OC[C@H]1O[C@@H]([S-])[C@H](OC(C)=O)[C@@H](OC(C)=O)[C@@H]1OC(C)=O.CCP(CC)CC.[Au+]` [AUF, Auranofin], the “Recognition of autologous tumour cells by TIL (IFNγ production) upon exposure to H2O2” value in series [1] was “increased recognition of their autologous tumour cells”. The “Protection of NK cells from monocyte-derived ROS” value in series [2] was “protects NK cells from monocyte-derived ROS”. Moreover, the “Intracellular ROS in NK cells co-cultured with activated monocytes” value in series [2] (0.5 μg/mL AUF, 2 h co-culture, vs controls) was “significantly lower levels of intracellular ROS”. In series [2] (also at the highest monocyte to NK cell ratio), the “Killing of K562 target cells by NK cells co-cultured with activated monocytes” value was “significantly higher efficiency”. For the same compound, the “Capacity of ANRU TIL to induce apoptosis in spheroid tumour cells (Caspase 3/7)” value in series [3] was “significantly increased capacity to induce apoptosis”. Also, in series [4] (NK cells, IFNγ release), the “Difference between 18 h and 24 h pre-treatment or 30 min pulse followed by 17.5 h incubation” value is recorded as “no difference”. Also, in series [4] (vs untreated NK cells), the “Cytokine release (IFNγ) capacity of NK cells following exposure to H2O2” value is reported as “improved”. The “Toxicity / cell death in cancer cells” value in series [5] was “toxic and induce cell death”.

The record behind these values is patent US20240277767A1, “METHODS AND USES” (PROLEUKOCYTE AB, priority 2021, published 2024).
